Experimental data published in ChEMBL document CHEMBL1201862, “PubChem BioAssay data set” (2004).
The source made the active and inactive calls. No stated cut-off is given here; in the data, actives have a measured IC50 and inactives only a lower limit.

Biological target: Envelope glycoprotein gp160 (Human immunodeficiency virus 1, UniProt Q6QLK5)
Experiment: cell-free HIV fusion peptide-binding blockers – biochemical, uHTS, fluorescence dequenching, […] (AID 1986)

Sequence of Envelope glycoprotein gp160 (Q6QLK5 whole entry, the tested form may be a part): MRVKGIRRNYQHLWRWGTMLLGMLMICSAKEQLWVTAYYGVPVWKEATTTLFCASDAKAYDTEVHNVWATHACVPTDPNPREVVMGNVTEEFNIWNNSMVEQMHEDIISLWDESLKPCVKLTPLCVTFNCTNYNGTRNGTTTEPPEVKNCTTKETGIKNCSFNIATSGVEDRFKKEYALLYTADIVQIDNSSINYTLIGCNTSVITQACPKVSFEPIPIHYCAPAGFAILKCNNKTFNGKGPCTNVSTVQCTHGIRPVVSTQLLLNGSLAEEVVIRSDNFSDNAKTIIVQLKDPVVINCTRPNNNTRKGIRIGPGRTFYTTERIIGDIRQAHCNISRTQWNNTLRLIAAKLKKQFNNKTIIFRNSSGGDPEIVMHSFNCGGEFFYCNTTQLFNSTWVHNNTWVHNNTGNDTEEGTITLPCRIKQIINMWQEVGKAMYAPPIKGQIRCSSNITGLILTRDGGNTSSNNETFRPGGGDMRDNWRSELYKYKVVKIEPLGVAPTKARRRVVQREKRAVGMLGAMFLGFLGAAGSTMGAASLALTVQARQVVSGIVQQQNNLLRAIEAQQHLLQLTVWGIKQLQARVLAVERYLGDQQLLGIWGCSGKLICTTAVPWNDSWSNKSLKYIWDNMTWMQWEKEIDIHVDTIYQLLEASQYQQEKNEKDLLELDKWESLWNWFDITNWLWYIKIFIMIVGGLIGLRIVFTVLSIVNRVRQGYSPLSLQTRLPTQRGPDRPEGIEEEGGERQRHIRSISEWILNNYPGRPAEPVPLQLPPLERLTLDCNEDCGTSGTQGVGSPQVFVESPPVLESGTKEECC

CCCCCCc1c(C)c2ccc(OCC(=O)N[C@@H](Cc3ccccc3)C(=O)O)cc2oc1=O
IC50: 22.8 µM (active)

O=C1NC(=S)N(c2ccc(F)cc2)C(=O)/C1=C/c1ccco1
IC50: 15.6 µM (active)

O=C(O)CN1C(=O)/C(=C\c2cccc(OCc3ccc(Cl)cc3)c2)SC1=S
IC50: 13.6 µM (active)

Cc1cc(C)cc(-n2cccc2/C=C2/C(=N)N3C(=NC2=O)SN=C3S(C)(=O)=O)c1
IC50: 11.6 µM (active)

O=[N+]([O-])c1cccc(S(=O)(=O)Nc2nc3ccccc3nc2Nc2cccc(S(=O)(=O)N3CCCCC3)c2)c1
IC50: 14.5 µM (active)

Cc1ccc(C)c(S(=O)(=O)/N=C2\C=C(NS(=O)(=O)c3ccccc3)C(=O)c3ccccc32)c1
IC50: 12.9 µM (active)
